Laboratory results: publication PMC12454493, “Insight on novel sulfamoylphenyl pyrazole derivatives as anticancer carbonic anhydrase inhibitors” (Molecular Diversity, 2024)
Several values for one entry are separate records, joined by “and”; a condition that tells them apart may be missing. Equal entries are not always repeated.

Assays:
M14 = experiment: NCI-60 one-dose SRB screen (Melanoma); type: cell-based; settings: Homo sapiens, single dose 10 µM, 48 h, read-out: Growth inhibition percent (GI %)
Description: (§1) The National Cancer Institute (NCI) Developmental Therapeutic Program (www.dtp.nci.nih.gov) selected the 20 novel synthesized compounds 4a-e, 5a-e, 6a-c, 9a-e, 10 and 11 to test for their anticancer activity at a single dose of 10 µM using SRB assay. […] Supplementary Data S3; Table S1 presents the detailed screening results of the most promising compounds. The preliminary screening’s detailed results for the remaining compounds are elucidated in the (Supplementary Data S3; Table S2).
(§2) The guidelines of the Drug Evaluation Branch’s protocol at the NCI in Bethesda served as the basis for the in vitro anticancer screening assays. at one dose 10 µM against a panel of 60 cancer cell lines. The human tumor cell lines used belonged to nine panels: leukemia, melanoma, lung, colon, CNS, ovarian, renal, prostate and breast cancers using the sulforhodamine B (SRB) assay in a 48 h drug exposure protocol.

MALME-3M = experiment: NCI-60 one-dose SRB screen (Melanoma); type: cell-based; settings: Homo sapiens, single dose 10 µM, 48 h, read-out: Growth inhibition percent (GI %)
Description: as §1, §2

MDA-MB-435 = experiment: NCI-60 one-dose SRB screen (Melanoma); type: cell-based; settings: Homo sapiens, single dose 10 µM, 48 h, read-out: Growth inhibition percent (GI %)
Description: as §1, §2

SK-MEL-28 = experiment: NCI-60 one-dose SRB screen (Melanoma); type: cell-based; settings: Homo sapiens, single dose 10 µM, 48 h, read-out: Growth inhibition percent (GI %)
Description: as §1, §2

SK-MEL-5 = experiment: NCI-60 one-dose SRB screen (Melanoma); type: cell-based; settings: Homo sapiens, single dose 10 µM, 48 h, read-out: Growth inhibition percent (GI %)
Description: as §1, §2

UACC-257 = experiment: NCI-60 one-dose SRB screen (Melanoma); type: cell-based; settings: Homo sapiens, single dose 10 µM, 48 h, read-out: Growth inhibition percent (GI %)
Description: as §1, §2

UACC-62 = experiment: NCI-60 one-dose SRB screen (Melanoma); type: cell-based; settings: Homo sapiens, single dose 10 µM, 48 h, read-out: Growth inhibition percent (GI %)
Description: as §1, §2

IGROV1 = experiment: NCI-60 one-dose SRB screen (Ovarian cancer); type: cell-based; settings: Homo sapiens, IGROV-1, single dose 10 µM, 48 h, read-out: Growth inhibition percent (GI %)
Description: as §1, §2

OVCAR-3 = experiment: NCI-60 one-dose SRB screen (Ovarian cancer); type: cell-based; settings: Homo sapiens, single dose 10 µM, 48 h, read-out: Growth inhibition percent (GI %)
Description: as §1, §2

OVCAR-4 = experiment: NCI-60 one-dose SRB screen (Ovarian cancer); type: cell-based; settings: Homo sapiens, single dose 10 µM, 48 h, read-out: Growth inhibition percent (GI %)
Description: as §1, §2

OVCAR-5 = experiment: NCI-60 one-dose SRB screen (Ovarian cancer); type: cell-based; settings: Homo sapiens, single dose 10 µM, 48 h, read-out: Growth inhibition percent (GI %)
Description: as §1, §2

OVCAR-8 = experiment: NCI-60 one-dose SRB screen (Ovarian cancer); type: cell-based; settings: Homo sapiens, single dose 10 µM, 48 h, read-out: Growth inhibition percent (GI %)
Description: as §1, §2

SK-OV-3 = experiment: NCI-60 one-dose SRB screen (Ovarian cancer); type: cell-based; settings: Homo sapiens, single dose 10 µM, 48 h, read-out: Growth inhibition percent (GI %)
Description: as §1, §2

786-0 = experiment: NCI-60 one-dose SRB screen (Renal Cancer); type: cell-based; settings: Homo sapiens, single dose 10 µM, 48 h, read-out: Growth inhibition percent (GI %)
Description: as §1, §2

A498 = experiment: NCI-60 one-dose SRB screen (Renal Cancer); type: cell-based; settings: Homo sapiens, single dose 10 µM, 48 h, read-out: Growth inhibition percent (GI %)
Description: as §1, §2

ACHN = experiment: NCI-60 one-dose SRB screen (Renal Cancer); type: cell-based; settings: Homo sapiens, single dose 10 µM, 48 h, read-out: Growth inhibition percent (GI %)
Description: as §1, §2

CAKI-1 = experiment: NCI-60 one-dose SRB screen (Renal Cancer); type: cell-based; settings: Homo sapiens, single dose 10 µM, 48 h, read-out: Growth inhibition percent (GI %)
Description: as §1, §2

RXF 393 = experiment: NCI-60 one-dose SRB screen (Renal Cancer); type: cell-based; settings: Homo sapiens, single dose 10 µM, 48 h, read-out: Growth inhibition percent (GI %)
Description: as §1, §2

SN12C = experiment: NCI-60 one-dose SRB screen (Renal Cancer); type: cell-based; settings: Homo sapiens, single dose 10 µM, 48 h, read-out: Growth inhibition percent (GI %)
Description: as §1, §2

TK-10 = experiment: NCI-60 one-dose SRB screen (Renal Cancer); type: cell-based; settings: Homo sapiens, single dose 10 µM, 48 h, read-out: Growth inhibition percent (GI %)
Description: as §1, §2

UO-31 = experiment: NCI-60 one-dose SRB screen (Renal Cancer); type: cell-based; settings: Homo sapiens, single dose 10 µM, 48 h, read-out: Growth inhibition percent (GI %)
Description: as §1, §2

DU-145 = experiment: NCI-60 one-dose SRB screen (Prostate Cancer); type: cell-based; settings: Homo sapiens, single dose 10 µM, 48 h, read-out: Growth inhibition percent (GI %)
Description: as §1, §2

PC-3 = experiment: NCI-60 one-dose SRB screen (Prostate Cancer); type: cell-based; settings: Homo sapiens, single dose 10 µM, 48 h, read-out: Growth inhibition percent (GI %)
Description: as §1, §2

BT-549 = experiment: NCI-60 one-dose SRB screen (Breast Cancer); type: cell-based; settings: Homo sapiens, single dose 10 µM, 48 h, read-out: Growth inhibition percent (GI %)
Description: as §1, §2

HS 578T = experiment: NCI-60 one-dose SRB screen (Breast Cancer); type: cell-based; settings: Homo sapiens, single dose 10 µM, 48 h, read-out: Growth inhibition percent (GI %)
Description: as §1, §2

MCF-7 = experiment: NCI-60 one-dose SRB screen (Breast Cancer); type: cell-based; settings: Homo sapiens, MCF7, single dose 10 µM, 48 h, read-out: Growth inhibition percent (GI %)
Description: as §1, §2

MDA-MB-231/ATCC = experiment: NCI-60 one-dose SRB screen (Breast Cancer); type: cell-based; settings: Homo sapiens, single dose 10 µM, 48 h, read-out: Growth inhibition percent (GI %)
Description: as §1, §2

MDA-MB-468 = experiment: NCI-60 one-dose SRB screen (Breast Cancer); type: cell-based; settings: Homo sapiens, single dose 10 µM, 48 h, read-out: Growth inhibition percent (GI %)
Description: as §1, §2

T-47D = experiment: NCI-60 one-dose SRB screen (Breast Cancer); type: cell-based; settings: Homo sapiens, T47D, single dose 10 µM, 48 h, read-out: Growth inhibition percent (GI %)
Description: as §1, §2

hCA XII = hCA XII (Homo sapiens, UniProt O43570); experiment: CA inhibitory activity, spectrophotometric p-NPA assay; type: biochemical; settings: p-NPA substrate, pH 7.5, 25 °C, triplicate; read-out: IC50 (µM) ± SD hCA XII
hCA XII, sequence (O43570 25-354): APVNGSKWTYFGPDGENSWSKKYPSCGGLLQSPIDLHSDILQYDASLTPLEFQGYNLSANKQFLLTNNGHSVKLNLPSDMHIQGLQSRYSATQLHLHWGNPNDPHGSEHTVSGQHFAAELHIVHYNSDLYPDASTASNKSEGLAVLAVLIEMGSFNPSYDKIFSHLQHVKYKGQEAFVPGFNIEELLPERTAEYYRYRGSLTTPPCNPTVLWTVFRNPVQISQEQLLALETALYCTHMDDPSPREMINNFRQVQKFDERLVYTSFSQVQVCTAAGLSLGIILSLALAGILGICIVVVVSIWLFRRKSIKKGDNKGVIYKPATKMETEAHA

## NS(=O)(=O)c1ccc(NC(=O)COC(=O)c2cn(-c3ccc(S(N)(=O)=O)cc3)nc2-c2ccccc2)cc1 [Compound 4a, 2-Oxo-2-[(4-sulfamoylphenyl)amino] ethyl 3-phenyl-1-(4-sulfamoylphenyl)-1H-pyrazole-4-carboxylate]
M14
  inhibition at 10 µM: 23.2%
MALME-3M
  inhibition at 10 µM: 8.55%
MDA-MB-435
  inhibition at 10 µM: < 5%
SK-MEL-28
  inhibition at 10 µM: < 5%
SK-MEL-5
  inhibition at 10 µM: < 5%
UACC-257
  inhibition at 10 µM: < 5%
UACC-62
  inhibition at 10 µM: < 5%
IGROV1
  inhibition at 10 µM: < 5%
OVCAR-3
  inhibition at 10 µM: < 5%
OVCAR-4
  inhibition at 10 µM: < 5%
OVCAR-5
  inhibition at 10 µM: < 5%
OVCAR-8
  inhibition at 10 µM: < 5%
SK-OV-3
  inhibition at 10 µM: < 5%
786-0
  inhibition at 10 µM: 31.2%
A498
  inhibition at 10 µM: < 5%
ACHN
  inhibition at 10 µM: < 5%
CAKI-1
  inhibition at 10 µM: 11.6%
RXF 393
  inhibition at 10 µM: < 5%
SN12C
  inhibition at 10 µM: < 5%
TK-10
  inhibition at 10 µM: < 5%
UO-31
  inhibition at 10 µM: 15%
DU-145
  inhibition at 10 µM: < 5%
PC-3
  inhibition at 10 µM: < 5%
BT-549
  inhibition at 10 µM: 43.4%
HS 578T
  inhibition at 10 µM: < 5%
MCF-7
  inhibition at 10 µM: < 5%
MDA-MB-231/ATCC
  inhibition at 10 µM: 10.5%
MDA-MB-468
  inhibition at 10 µM: < 5%
T-47D
  inhibition at 10 µM: < 5%
hCA XII
  IC50: 0.22 µM and 0.226 µM
